In assay [1] the test system is LAMAM. Kind of assay: Post-emergence weed control, field (Example 3), percent injury 17 DAT. In kind it is in vivo, Lamium amplexicaule. The text has this:
(§1) The herbicide compounds applied in the examples were used as experimental or commercially available solo or premix formulations which have been diluted with tap water to a suitable concentration. Glufosinate was used as a commercial SL formulation containing 280 g ai/I of glufosinate (Liberty 280 SL, BASF). While the PPO herbicides saflufenacil and trifludimoxazin were used as solo (saflufenacil - Sharpen/Heat herbicide 342 SC, BASF, or trifludimoxazin - Vulcarus 500 SC, BASF), or a premix of saflufenacil + trifludimoxazin as a 250 + 125 g ai/I SC formulation.
(§2) The evaluation for plant injury or damage caused by the chemical compositions was carried out using a scale from 0 - 100% when compared with the untreated control plants. Here, 0 means no damage and 100 means complete destruction of the plants.
(§3) A natural field population of common chickweed (Stellaria media; STEME), purple cudweed (Gnaphalium purpureum; GNAPU), henbit (Lamium amplexicaule; LAMAM), and annual bluegrass (Poa annua; POAAN) were treated with postemergence applications of either glufosinate at 450 or 655 g ai/ha, saflufenacil + trifludimoxazin at 1.7 + 0.8, or 4.2 + 2.1 g ai/ha, or the combination of glufosinate and saflufenacil + trifludimoxazin at 450 and 1.7 + 0.8, or 4.2 + 2.1 g ai/ha, respectively, when they were 7.6 - 15 cm in height. […]

Assay [2] has as its system OEOLA. Kind of assay: Post-emergence weed control, field (Example 2), percent injury 16 DAT. In kind it is in vivo, Oenothera laciniate.
Text: as §1, §2
(§4) A natural field population of small flowered bittercress (Cardamine parviflora; CARPA), cressleaf grounsel (Senecio glabellus; SENGL), cutleaf evening primrose (Oenothera laciniate; OEOLA), and annual bluegrass (Poa annua; POAAN) were treated with postemergence applications of either glufosinate at 450 or 655 g ai/ha, saflufenacil + trifludimoxazin at 1.7 + 0.8, or 4.2 + 2.1 g ai/ha, or the combination of glufosinate and saflufenacil + trifludimoxazin at 450 and 1.7 + 0.8, or 4.2 + 2.1 g ai/ha, respectively, when they were 10 - 25 cm in height. […]

For assay [3], the system named is LOLMU. Kind of assay: Post-emergence weed control, greenhouse (Example 1), percent injury 14 DAT. The following applies: Lolium multiflorum, 336 h, Glufosinate 450 g/ha, read-out: Herbicidal action against LOLMU (% activity compared to untreated) Found. The class given is in vivo.
Text: as §1, §2
22., E=X+Y-(X*Y/100), where X = effect in percent using herbicide A at an application rate of a; Y = effect in percent using herbicide B at an application rate of b; E = expected effect (in %) of A + B at application rates a + b.
The value E corresponds to the effect (plant damage or injury) which is to be expected if the activity of the individual compounds is just additive. If the observed effect is higher than the value E calculated according to Colby, a synergistic effect is present. […]

Assay [4] concerns SENGL. Kind of assay: Post-emergence weed control, field (Example 2), percent injury 16 DAT. The class given is in vivo, Senecio glabellus.
Text: as §1, §2, §4

Assay [5] has as its system POAAN. Nature of the assay: Post-emergence weed control, field (Example 3), percent injury 17 DAT. The class given is in vivo, Poa annua.
Text: as §1, §2, §3

For assay [6], the system named is GNAPU. Described as above. The class given is in vivo, Gnaphalium purpureum.
Text: as §1, §2, §3

Assay [7] has as its system STEME. The assay is described as above. The class given is in vivo, Stellaria media.
Text: as §1, §2, §3

The subject of assay [8] is POAAN. Kind of assay: Post-emergence weed control, field (Example 2), percent injury 16 DAT. In kind it is in vivo, Poa annua.
Text: as §1, §2, §4

For assay [9], the system named is CARPA. Described as above. In kind it is in vivo, Cardamine parviflora.
Text: as §1, §2, §4

As for `CP(=O)(O)CCC(N)C(=O)O` (racemic) [Glufosinate, (2RS)-2-amino-4-[hydroxy(methyl)phosphinoyl]butyric acid], the entries for the “Mean % Control (17 DAT) LAMAM” value in [1] (450 g ai/ha) and in assay [1] (655 g ai/ha) were 50.0% and 82.7%, respectively. The “Mean % Control (16 DAT) OEOLA” value in assay [2] (450 g ai/ha) was 81.7%; in [2] (655 g ai/ha), 92.3%. Besides, the activity at 450 g/ha in [3] amounted to 68.5%. Further, the “Mean % Control (16 DAT) SENGL” value came out at 80.7% in assay [4] (450 g ai/ha) and 88.7% in [4] (655 g ai/ha). The results for the “Mean % Control (17 DAT) POAAN” value in assay [5] (450 g ai/ha) and in assay [5] (655 g ai/ha) were 66.7% and 86.7%, respectively. Moreover, the figures for the “Mean % Control (17 DAT) GNAPU” value in assay [6] (450 g ai/ha) and in assay [6] (655 g ai/ha) were 78.3% and 98.7%, respectively. The “Mean % Control (17 DAT) STEME” value was determined as 53.3% in [7] (450 g ai/ha) and 90.0% in assay [7] (655 g ai/ha). The “Mean % Control (16 DAT) POAAN” value in [8] (450 g ai/ha) is given as 80.0%; in assay [8] (655 g ai/ha), 90.7%. For the same molecule, the figures for the “Mean % Control (16 DAT) CARPA” value in assay [9] (450 g ai/ha) and in [9] (655 g ai/ha) were 90.7% and 95.0%, respectively.

The values above are taken from patent EP4000400A1, “HERBICIDE COMBINATION COMPRISING GLUFOSINATE, SA[…] TRIFLUDIMOXAZIN” (BASF SE, priority 2020, dated 2022).
